# According to ChEMBL document CHEMBL1201862, “PubChem BioAssay data set” (2004):
# Activity calls are given as the source filed them.
# What was measured:
# [1] = cells; format: functional, cell-based
# [2] = cells; format: functional, cell-based; remark: listed apart in the source
# [3] = cells; format: functional, cell-based; remark: listed apart in the source
# [4] = target: T1, Trace amine-associated receptor 1 (Homo sapiens, UniProt Q96RJ0); test: Fluorescence-based cell-based high throughput dose response assay to identify agonists of the human trace amine associated receptor 1 (TAAR1).; format: functional
# T1 sequence (Q96RJ0 whole entry): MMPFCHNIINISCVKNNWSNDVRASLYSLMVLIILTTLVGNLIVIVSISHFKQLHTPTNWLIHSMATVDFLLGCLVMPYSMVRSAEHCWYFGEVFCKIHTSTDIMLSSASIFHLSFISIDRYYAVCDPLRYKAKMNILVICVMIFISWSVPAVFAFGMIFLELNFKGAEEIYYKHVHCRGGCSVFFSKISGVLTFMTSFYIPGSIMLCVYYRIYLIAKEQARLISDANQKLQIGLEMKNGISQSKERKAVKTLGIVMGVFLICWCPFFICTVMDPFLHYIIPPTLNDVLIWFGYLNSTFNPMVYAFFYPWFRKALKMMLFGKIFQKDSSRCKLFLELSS
# [5] = target: T1, Trace amine-associated receptor 1; test: Counterscreen for agonists of the human trace amine associated receptor 1 (hTAAR1): Fluorescence-based cell-based high throughput dose response assay to identify hTAAR1 agonist that also desensitize TAAR1 receptor response.; format: functional
# [6] = cells; format: functional, cell-based; remark: listed apart in the source
# [7] = tested on: Streptococcus sp. 'group A'; test: Streptococcus pyogenes SK(-)GAS viability under kanamycin – luminescence, BacTiterGlo, confirmation, counter-screen for streptokinase expression inhibitor project, dose response (AID 1900); format: functional, organism-based
# [8] = target: T2, Streptokinase A (Streptococcus pyogenes serotype M1, UniProt P10520); test: viability-normalized secreted streptokinase activity reduction – plasminogen activation absorbance, OD405, dose response (AID 1914); format: functional, Streptococcus pyogenes M1 GAS;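 note: secreted streptokinase activity via plasminogen activation per viability signal from cell pellet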
# T2 sequence (P10520 whole entry): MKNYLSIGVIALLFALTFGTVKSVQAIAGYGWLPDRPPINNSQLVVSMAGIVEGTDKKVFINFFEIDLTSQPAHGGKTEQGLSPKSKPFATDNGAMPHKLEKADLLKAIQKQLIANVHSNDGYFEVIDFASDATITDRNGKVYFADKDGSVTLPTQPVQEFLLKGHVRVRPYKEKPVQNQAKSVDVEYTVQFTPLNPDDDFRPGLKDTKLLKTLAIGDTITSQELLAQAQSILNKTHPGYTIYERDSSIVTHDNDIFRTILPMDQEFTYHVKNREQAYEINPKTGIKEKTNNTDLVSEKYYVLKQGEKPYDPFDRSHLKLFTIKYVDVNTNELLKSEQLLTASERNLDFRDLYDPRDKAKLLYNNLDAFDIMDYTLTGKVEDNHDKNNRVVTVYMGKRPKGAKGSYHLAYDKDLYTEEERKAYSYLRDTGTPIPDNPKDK
# [9] = tested on: Streptococcus; test: GAS UMAA2166 growth inhibition – luminescence, BacTiterGlo, counter-screen for streptokinase expression inhibitor project, dose response (AID 1915); format: functional, organism-based;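 note: potency for reduction of bacterial viability or growth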
# [10] = target: Voltage-dependent T-type calcium channel subunit alpha-1H (Homo sapiens, UniProt O95180); format: functional;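 note: channel activity triggered by adding a high calcium stimulation buffer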
# Chain of Voltage-dependent T-type calcium channel subunit alpha-1H (O95180 whole entry): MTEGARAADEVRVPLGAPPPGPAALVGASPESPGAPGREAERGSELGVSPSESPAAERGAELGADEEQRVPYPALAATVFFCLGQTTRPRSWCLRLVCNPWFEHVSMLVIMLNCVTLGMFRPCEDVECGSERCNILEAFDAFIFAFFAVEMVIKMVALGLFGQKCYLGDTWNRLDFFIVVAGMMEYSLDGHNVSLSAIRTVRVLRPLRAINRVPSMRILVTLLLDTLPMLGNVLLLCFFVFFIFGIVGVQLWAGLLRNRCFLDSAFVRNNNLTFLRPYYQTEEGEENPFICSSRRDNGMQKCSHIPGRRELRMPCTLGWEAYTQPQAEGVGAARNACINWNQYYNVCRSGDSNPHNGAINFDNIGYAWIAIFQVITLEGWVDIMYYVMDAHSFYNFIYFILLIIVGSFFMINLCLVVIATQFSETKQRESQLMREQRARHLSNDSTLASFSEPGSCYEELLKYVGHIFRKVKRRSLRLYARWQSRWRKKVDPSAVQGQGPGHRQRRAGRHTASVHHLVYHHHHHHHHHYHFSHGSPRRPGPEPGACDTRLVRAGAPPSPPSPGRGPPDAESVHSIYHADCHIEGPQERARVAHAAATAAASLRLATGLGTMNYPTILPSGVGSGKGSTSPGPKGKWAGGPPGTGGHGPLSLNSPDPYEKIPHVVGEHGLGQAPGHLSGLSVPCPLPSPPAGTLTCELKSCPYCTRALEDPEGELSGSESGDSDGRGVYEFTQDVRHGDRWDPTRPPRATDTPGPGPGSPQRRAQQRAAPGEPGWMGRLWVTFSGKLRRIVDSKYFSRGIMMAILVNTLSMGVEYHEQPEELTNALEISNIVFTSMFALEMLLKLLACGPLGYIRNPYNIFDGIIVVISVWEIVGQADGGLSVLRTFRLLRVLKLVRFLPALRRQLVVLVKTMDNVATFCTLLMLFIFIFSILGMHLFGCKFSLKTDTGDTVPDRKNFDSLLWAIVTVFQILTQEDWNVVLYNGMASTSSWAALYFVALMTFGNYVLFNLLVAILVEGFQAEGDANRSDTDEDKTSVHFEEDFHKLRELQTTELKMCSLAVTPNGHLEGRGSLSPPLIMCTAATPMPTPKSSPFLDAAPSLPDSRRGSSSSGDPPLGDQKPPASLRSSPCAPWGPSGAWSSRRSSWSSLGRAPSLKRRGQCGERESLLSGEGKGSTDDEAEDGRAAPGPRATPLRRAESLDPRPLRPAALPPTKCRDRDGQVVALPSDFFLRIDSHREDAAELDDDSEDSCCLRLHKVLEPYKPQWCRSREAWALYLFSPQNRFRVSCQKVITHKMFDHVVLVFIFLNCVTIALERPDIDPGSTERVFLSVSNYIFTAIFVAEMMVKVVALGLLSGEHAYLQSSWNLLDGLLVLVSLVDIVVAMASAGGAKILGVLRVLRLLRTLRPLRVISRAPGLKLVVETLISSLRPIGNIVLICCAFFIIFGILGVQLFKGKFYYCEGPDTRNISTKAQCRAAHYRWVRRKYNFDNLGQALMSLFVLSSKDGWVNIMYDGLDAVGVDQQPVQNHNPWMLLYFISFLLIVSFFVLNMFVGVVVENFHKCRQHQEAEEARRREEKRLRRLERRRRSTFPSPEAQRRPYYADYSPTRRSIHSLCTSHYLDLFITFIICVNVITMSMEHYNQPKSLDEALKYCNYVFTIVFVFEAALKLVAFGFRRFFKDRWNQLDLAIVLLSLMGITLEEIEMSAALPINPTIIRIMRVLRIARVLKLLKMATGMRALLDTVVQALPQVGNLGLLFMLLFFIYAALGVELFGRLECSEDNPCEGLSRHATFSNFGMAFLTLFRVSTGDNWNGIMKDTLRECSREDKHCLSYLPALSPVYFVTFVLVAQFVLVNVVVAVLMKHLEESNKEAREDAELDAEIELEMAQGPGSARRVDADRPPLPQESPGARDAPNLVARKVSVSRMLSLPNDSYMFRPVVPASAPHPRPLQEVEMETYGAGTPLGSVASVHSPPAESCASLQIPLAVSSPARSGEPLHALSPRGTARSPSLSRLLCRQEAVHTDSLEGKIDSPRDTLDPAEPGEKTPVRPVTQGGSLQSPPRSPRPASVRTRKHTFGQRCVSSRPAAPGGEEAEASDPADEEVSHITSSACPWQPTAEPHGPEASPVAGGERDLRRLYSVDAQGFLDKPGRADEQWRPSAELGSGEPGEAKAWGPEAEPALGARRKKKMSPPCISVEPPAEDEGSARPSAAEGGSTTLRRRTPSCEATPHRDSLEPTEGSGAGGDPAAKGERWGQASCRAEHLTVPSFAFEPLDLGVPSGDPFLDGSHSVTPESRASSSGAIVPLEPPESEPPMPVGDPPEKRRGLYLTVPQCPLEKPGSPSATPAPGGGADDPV
# [11] = tested on: H9c2; test: cells; format: functional, cell-based; settings: Rattus norvegicus, H9c2, Myocardium;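 note: confirmatory concentration-response retest of ultra-high-throughput screening hits for modulation of myocardial damage; cell death induced by hydrogen peroxide oxidative stress; compound pretreatment for 60 min then peroxide exposure for 2 h; potency is for protecting the cells against peroxide damage rather than for killing them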
# [12] = target: Peroxisome proliferator-activated receptor gamma/Nuclear receptor coactivator 1 (Homo sapiens, UniProt P37231); test: (§1) TR-FRET dose response biochemical High Throughput Screening assay for agonists of the steroid receptor coactivator 1 (SRC-1) recruitment by the peroxisome proliferator-activated receptor gamma (PPAR gamma): non-selective agonists. [Related pubchem assays (depositor defined):AID1300, AID1808, AID504735, AID631]; format: protein assay
# [13] = target: Peroxisome proliferator-activated receptor gamma/Nuclear receptor coactivator 3 (Homo sapiens, UniProt P37231); test: as §1, with “3 (SRC-3)” for “1 (SRC-1)”, “assays: 1301 (Confirmation screen.), 1048 (Primary screen.)]” for “assays (depositor defined):AID1300, AID1808, AID504735, AID631]”; format: functional
# [14] = target: Peroxisome proliferator-activated receptor gamma/Nuclear receptor coactivator 2 (Homo sapiens, UniProt P37231); test: TR-FRET dose response biochemical High Throughput Screening assay for agonists of the steroid receptor coactivator 2 (SRC-2) recruitment by the peroxisome proliferator-activated receptor gamma (PPAR gamma): non-selective agonists. [Related pubchem assays: 1297, 1032 ]; format: functional
# [15] = HEK-293T cell viability reduction – luminescence, B-cell screen hits, cytotoxicity control for BCR NF-kB inhibitor project, dose response (AID 489021); format: functional, cell-based;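 note: HEK-293T cells carrying an NF-kB luciferase reporter; cells exposed to compound for about 14 hours before viability readout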
# [16] = target: Large T antigen (Simian virus 40, UniProt P03070); format: functional, Betapolyomavirus macacae;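 note: Confirmatory-stage PubChem screen for compounds that inhibit SV40 T antigen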
# Chain of Large T antigen (P03070 whole entry, the tested form may be a part): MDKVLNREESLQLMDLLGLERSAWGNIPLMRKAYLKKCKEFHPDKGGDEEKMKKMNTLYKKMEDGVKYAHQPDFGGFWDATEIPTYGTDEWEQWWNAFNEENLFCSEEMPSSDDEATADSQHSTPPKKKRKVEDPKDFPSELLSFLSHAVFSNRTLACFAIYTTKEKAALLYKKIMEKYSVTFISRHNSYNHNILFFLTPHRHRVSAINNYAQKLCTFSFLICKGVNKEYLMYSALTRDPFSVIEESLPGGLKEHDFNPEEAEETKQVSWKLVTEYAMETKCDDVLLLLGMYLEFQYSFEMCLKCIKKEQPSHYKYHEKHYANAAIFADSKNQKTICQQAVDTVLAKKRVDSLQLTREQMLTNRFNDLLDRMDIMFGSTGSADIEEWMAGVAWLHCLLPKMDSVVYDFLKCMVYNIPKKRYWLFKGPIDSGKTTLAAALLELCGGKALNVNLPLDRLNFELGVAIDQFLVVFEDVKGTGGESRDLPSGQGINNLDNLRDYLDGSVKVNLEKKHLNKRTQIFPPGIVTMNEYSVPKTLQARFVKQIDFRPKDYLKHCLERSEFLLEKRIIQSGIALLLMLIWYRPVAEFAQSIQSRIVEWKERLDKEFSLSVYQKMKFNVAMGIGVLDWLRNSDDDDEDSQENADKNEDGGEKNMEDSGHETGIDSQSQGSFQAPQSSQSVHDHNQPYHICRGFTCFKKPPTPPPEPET
# [17] = target: T3, Hepatocyte nuclear factor 4-alpha (Homo sapiens, UniProt P41235); format: functional, cell-based;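 note: biochemical luminescence-based dose-response counterscreen measuring inhibition of HNF4 dimerization, run alongside a screen for blockers of ABHD5–perilipin-5 interaction; split luciferase complementation of HNF4 fusion proteins in cell lysate measuring dimerization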
# T3 sequence (P41235 whole entry): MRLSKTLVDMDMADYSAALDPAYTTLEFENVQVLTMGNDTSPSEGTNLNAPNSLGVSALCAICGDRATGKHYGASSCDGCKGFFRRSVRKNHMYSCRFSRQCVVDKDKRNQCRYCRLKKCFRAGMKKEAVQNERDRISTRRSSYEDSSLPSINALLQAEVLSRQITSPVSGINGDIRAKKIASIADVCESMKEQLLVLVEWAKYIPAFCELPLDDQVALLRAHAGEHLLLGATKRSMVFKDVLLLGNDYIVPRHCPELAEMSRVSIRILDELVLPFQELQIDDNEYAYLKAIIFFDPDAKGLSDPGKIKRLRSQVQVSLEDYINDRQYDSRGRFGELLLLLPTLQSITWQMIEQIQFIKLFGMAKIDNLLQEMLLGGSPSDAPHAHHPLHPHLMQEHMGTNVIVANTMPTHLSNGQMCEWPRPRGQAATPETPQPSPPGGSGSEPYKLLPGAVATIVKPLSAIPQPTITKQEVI
# [18] = target: T4, Rac GTPase-activating protein 1 (Homo sapiens, UniProt Q9H0H5); test: blockers of MgcRacGAP-driven Rac1 GTP hydrolysis – biochemical, ADP Hunter fluorescence, primary and confirmatory, confirmation (AID 624330); format: functional
# T4 sequence (Q9H0H5 whole entry): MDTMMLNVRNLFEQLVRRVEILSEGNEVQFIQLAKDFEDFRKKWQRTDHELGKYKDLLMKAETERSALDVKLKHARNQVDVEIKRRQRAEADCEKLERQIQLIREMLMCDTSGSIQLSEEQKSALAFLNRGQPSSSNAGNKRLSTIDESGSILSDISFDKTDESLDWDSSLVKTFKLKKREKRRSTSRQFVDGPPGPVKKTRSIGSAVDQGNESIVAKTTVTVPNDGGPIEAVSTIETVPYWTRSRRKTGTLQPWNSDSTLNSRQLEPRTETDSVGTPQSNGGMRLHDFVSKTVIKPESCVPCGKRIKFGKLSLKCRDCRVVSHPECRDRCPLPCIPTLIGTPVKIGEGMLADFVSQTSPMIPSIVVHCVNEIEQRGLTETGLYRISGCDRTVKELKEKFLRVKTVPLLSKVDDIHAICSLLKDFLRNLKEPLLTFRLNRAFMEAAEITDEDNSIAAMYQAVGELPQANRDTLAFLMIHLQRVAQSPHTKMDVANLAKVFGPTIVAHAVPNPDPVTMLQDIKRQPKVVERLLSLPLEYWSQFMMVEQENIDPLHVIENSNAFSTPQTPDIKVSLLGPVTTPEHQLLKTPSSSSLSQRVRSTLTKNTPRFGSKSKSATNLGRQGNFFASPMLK
# [19] = target: Protein-tyrosine kinase 2-beta (Homo sapiens, UniProt Q14289);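 note: potency of inhibitors of PYK2 kinase phosphorylation of poly-GT substrate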
# Chain of Protein-tyrosine kinase 2-beta (Q14289 whole entry): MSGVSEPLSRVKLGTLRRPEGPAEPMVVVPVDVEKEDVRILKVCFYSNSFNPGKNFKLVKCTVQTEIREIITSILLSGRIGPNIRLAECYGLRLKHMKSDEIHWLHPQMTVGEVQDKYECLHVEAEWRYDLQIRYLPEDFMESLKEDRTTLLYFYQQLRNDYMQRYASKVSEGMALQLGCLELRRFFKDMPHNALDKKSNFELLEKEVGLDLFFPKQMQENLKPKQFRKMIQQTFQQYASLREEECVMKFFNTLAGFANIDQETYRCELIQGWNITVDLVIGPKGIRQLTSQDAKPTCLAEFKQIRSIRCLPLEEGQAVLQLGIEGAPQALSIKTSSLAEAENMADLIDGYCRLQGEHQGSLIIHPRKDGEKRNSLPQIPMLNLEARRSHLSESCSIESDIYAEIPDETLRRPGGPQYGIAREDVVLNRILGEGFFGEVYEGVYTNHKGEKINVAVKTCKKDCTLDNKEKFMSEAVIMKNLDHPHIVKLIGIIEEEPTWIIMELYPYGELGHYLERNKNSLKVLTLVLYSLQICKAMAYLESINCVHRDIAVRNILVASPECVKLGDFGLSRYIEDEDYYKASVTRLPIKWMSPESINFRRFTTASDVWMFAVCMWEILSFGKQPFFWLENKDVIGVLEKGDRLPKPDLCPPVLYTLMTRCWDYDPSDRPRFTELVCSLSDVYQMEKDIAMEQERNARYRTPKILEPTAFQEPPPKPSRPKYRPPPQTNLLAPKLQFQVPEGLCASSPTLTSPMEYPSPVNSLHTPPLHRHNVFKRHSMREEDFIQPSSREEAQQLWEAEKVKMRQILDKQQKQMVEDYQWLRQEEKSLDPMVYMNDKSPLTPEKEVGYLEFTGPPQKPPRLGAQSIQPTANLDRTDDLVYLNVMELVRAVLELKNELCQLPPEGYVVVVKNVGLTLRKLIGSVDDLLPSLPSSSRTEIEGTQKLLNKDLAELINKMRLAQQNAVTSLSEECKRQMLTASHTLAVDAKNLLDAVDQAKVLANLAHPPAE
compound,measurement,setting,value
CC1SC(NC(=O)c2ccncc2)=NC1=O (stereo unspecified),EC50,[1],> 350 µM (not active)
same,EC50,[2],> 350 µM (not active)
O=C(O)c1ccccc1C(=O)NCC(O)c1ccccc1 (stereo unspecified),IC50,[3],> 29.9 µM (inactive)
same,EC50,[4],5.05 µM (active)
same,IC50,[5],> 29.9 µM (inactive)
same,EC50,[6],> 29.9 µM (inactive)
O=C(CCCSc1ccccc1)Nc1nc(-c2ccccn2)cs1,EC50,[7],5.14 µM (active)
same,EC50,[8],> 150 µM (not active)
same,EC50,[9],45.8 µM (active)
same,EC50,[10],4.7 µM (active)
same,IC50,[11],> 79 µM (inactive)
CCn1c(=O)cc(SCC(=O)N2CCC(C)CC2)c2ccccc21,EC50,[12],> 79.4 µM (inactive)
same,EC50,[13],> 79.4 µM (not active)
same,EC50,[14],> 79.4 µM (not active)
same,IC50,[15],> 80 µM (inactive)
CCc1ccc2nc(Nc3nc(O)cc(COC)n3)nc(C)c2c1,IC50,[15],> 80 µM (inactive)
O=S(=O)(NC1=NCCCCC1)c1ccc2sc(NS(=O)(=O)c3ccc4ccccc4c3)nc2c1,IC50,[16],39.4 µM (active)
same,IC50,[17],9.21 µM (active)
same,IC50,[18],156 µM (active)
CN1C(=O)c2cccc3c(S(=O)(=O)NCc4ccco4)ccc1c23,IC50,[19],> 69.5 µM (not active)
CC(C)C(=O)Nc1ccc(NC(=O)c2ccc3c(c2)OCO3)cc1,IC50,[15],> 80 µM (inactive)
Cc1cccc(C)c1NC(=O)C(c1ccc(Cl)cc1Cl)N1CCCCC1 (stereo unspecified),EC50,[10],2.39 µM (active)
O=C(Nc1ccc(F)cc1)Nc1ccc(Oc2ncnc3cc(Cl)ccc23)nc1,IC50,[3],> 29.9 µM (inactive)
same,EC50,[4],> 29.9 µM (inactive)
same,IC50,[5],0.373 µM (active)
same,EC50,[6],> 29.9 µM (inactive)
